Laboratory results published in paper PMC8126888 (RSC Medicinal Chemistry, 2020).
Where two headings read alike, the source gives them in different places.

What was measured:
[1] = system: primary peritoneal mouse macrophages (PMM); experiment: cells; conditions: Macrophage
in vitro [2] = conditions: human, microsomes
in vitro [3] = conditions: mouse, microsomes
physchem = conditions: HPLC, Ascentis Express RP Amide column, pH 7.4, elog D, HPLC measured log D, pH 7.4
[4] = system: Leishmania infantum MHOM/MA(BE)/67/ITMAP263 intracellular amastigotes; experiment: microbe, parasite or virus in culture; conditions: Macrophage, in Mus musculus
in vitro [5] = conditions: human
[6] = system: Trypanosoma cruzi, Tulahuen CL2, beta-galactosidase strain; experiment: microbe, parasite or virus in culture; conditions: MRC5, read-out: T. cruzi Tulahuen C4 (LacZ) IC50
[7] = read-out: PMM pIC50 (converted)
[8] = pH 7.4, Microsome Clint,u Human, Table 2, intrinsic in vitro clearance, liver microsomes
[9] = pH 7.4, Microsome Clint,u Mouse, Table 2, intrinsic in vitro clearance, liver microsomes
[10] = read-out: L. inf. pIC50, intracellular amastigotes in PMM (converted), geometric mean of a minimum of two experiments ± standard error
[11] = pH 7.4, Microsome Clint Human, intrinsic in vitro clearance, liver microsomes
[12] = pH 7.4, Microsome Clint Mouse, intrinsic in vitro clearance, liver microsomes

Structure (SMILES) | IC50 [1, 7] [µM] | chromatographic logD (physchem) | IC50 [4, 10] [µM] | microsomal CLint at 0.5 h, 0.5 µM (in vitro [2]; [11]) [µL/min/mg] | also measured
COCCN(Cc1ccc(F)cc1)S(=O)(=O)c1cc(C#N)ccc1OC [Compound 41] | > 64.6 | 3.4 | 8.91 | – | microsomal CLint at 0.5 μM (in vitro [2]; [8]): < 23 µL/min/mg; microsomal CLint at 0.5 h, 0.5 µM (in vitro [3]; [9]): 585 µL/min/mg
COc1ccc([S+](C)[O-])cc1S(=O)(=O)N(Cc1ccccc1)Cc1ccccc1 (stereo not drawn) [Compound 28] | > 64.6 | 3.5 | 0.589 | 233 | microsomal CLint at 0.5 h, 0.5 µM (in vitro [3]; [12]): 929 µL/min/mg
COCCN(Cc1ccccc1)S(=O)(=O)c1cc(OC)ccc1OC [Compound 39] | > 64.6 | 3.5 | 2.09 | – | microsomal CLint at 0.5 μM (in vitro [2]; [8]): 253 µL/min/mg
COc1ccc(S(N)(=O)=O)cc1S(=O)(=O)N(Cc1ccccc1)Cc1ccccc1 [Compound 27] | > 64.6 | 3.6 | 0.562 | 94.1 | microsomal CLint at 0.5 h, 0.5 µM (in vitro [3]; [12]): 884 µL/min/mg
N#Cc1ccc(O)c(S(=O)(=O)N(Cc2ccc(F)cc2)Cc2ccc(F)cc2)c1 [Compound 16] | 45.7 | 3.7 | 30.9 | 27.4 | microsomal CLint at 0.5 h, 0.5 µM (in vitro [3]; [12]): 1100 µL/min/mg
COCCN(Cc1ccc(F)cc1)S(=O)(=O)c1cc(C(=O)N2CCOCC2)ccc1OC [Compound 42] | > 64.6 | 2.9 | 43.7 ± 0.601 | – | microsomal CLint at 0.5 μM (in vitro [2]; [8]): 28 µL/min/mg; microsomal CLint at 0.5 μM (in vitro [3]; [9]): 60 µL/min/mg
COc1ccc(F)cc1S(=O)(=O)N(Cc1ccccc1)Cc1ccccc1 [Compound 18] | > 64.6 | 4.7 | 1.38 | – | microsomal CLint at 0.5 μM (in vitro [2]; [11]): 955 µL/min/mg
COc1ccc(C(=O)O)cc1S(=O)(=O)N(Cc1ccccc1)Cc1ccccc1 [Compound 20] | > 64.6 | 2.5 | 57.5 | – | microsomal CLint at 0.5 μM (in vitro [2]; [11]): < 23 µL/min/mg; microsomal CLint at 0.5 h, 0.5 µM (in vitro [3]; [12]): 94 µL/min/mg
COc1ccc(C(N)=O)cc1S(=O)(=O)N(Cc1ccccc1)Cc1ccccc1 [Compound 21] | > 64.6 | 3.6 | 7.41 | – | microsomal CLint at 0.5 μM (in vitro [2]; [11]): 108 µL/min/mg; microsomal CLint at 0.5 μM (in vitro [3]; [12]): 1670 µL/min/mg
O=S(=O)(c1ccccc1OC(F)(F)F)N(Cc1ccccc1)Cc1ccccc1 [Compound 15] | > 64.6 | 5.1 | 1.1 | 92.9 | microsomal CLint at 0.5 μM (in vitro [3]; [12]): 689 µL/min/mg
N#Cc1ccccc1S(=O)(=O)N(Cc1ccccc1)Cc1ccccc1 [Compound 13] | > 64.6 | 4.3 | 11.2 | 699 | –
COc1ccc(CN2CCOCC2)cc1S(=O)(=O)N(Cc1ccc(F)cc1)Cc1ccc(F)cc1 [Compound 24] | > 64.6 | – | 0.525 | 49.4 | microsomal CLint at 0.5 μM (in vitro [3]; [12]): 3200 µL/min/mg
COc1ccc(C(=O)N2CCOCC2)cc1S(=O)(=O)N(Cc1ccc(F)cc1)CC(C)C [Compound 44] | > 64.6 | 3.6 | 6.92 | – | microsomal CLint at 0.5 h, 0.5 µM (in vitro [2]; [8]): 1050 µL/min/mg; microsomal CLint at 0.5 h, 0.5 µM (in vitro [3]; [9]): 1400 µL/min/mg
COc1ccc(OC)c(S(=O)(=O)N(Cc2ccc(F)cc2)c2ccc(F)cc2)c1 [Compound 33] | > 64.6 | 4.3 | 11.5 | – | microsomal CLint at 0.5 h, 0.5 µM (in vitro [2]; [8]): 482 µL/min/mg; microsomal CLint at 0.5 h, 0.5 µM (in vitro [3]; [9]): 1560 µL/min/mg
COc1ccc(C(N)=O)cc1S(=O)(=O)N(Cc1ccccc1)Cc1ccccc1 [DNDI0003366135] | – | – | – | – | IC50 ([1]; read-out: PMM IC50): > 64 µM; microsomal CLint at 0.5 μM (in vitro [2]; pH 7.4, HLM CLint, human liver microsomes): 108 µL/min/mg; microsomal CLint at 0.5 μM (in vitro [3]; pH 7.4, MLM CLint, mouse liver microsomes): 1670 µL/min/mg; CC50 at 3 days (in vitro [5]): 43.2 µM; IC50 ([4]; read-out: L. Inf. pIC50, from L. infantum intracellular amastigote IC50 (converted)): 7.41 µM; IC50 ([4]; read-out: L. infantum MHOM/MA(BE)/67/ITMAP263 intracellular amastigotes IC50, intracellular amastigotes): 7.39 µM; IC50 [6]: > 64 µM
COc1ccc(Cl)cc1S(=O)(=O)N(Cc1ccccc1)Cc1ccccc1 [Compound 19] | > 64.6 | – | 1.38 | – | microsomal CLint at 0.5 μM (in vitro [2]; [11]): 407 µL/min/mg; microsomal CLint at 0.5 μM (in vitro [3]; [12]): 1350 µL/min/mg
COc1ccc(C#N)cc1S(=O)(=O)N(Cc1ccccc1)Cc1ccccc1 [Compound 17] | > 64.6 | 4.3 | 0.437 | – | microsomal CLint at 0.5 μM (in vitro [2]; [11]): 304 µL/min/mg
